The record followed here is BindingDB's records for PubMed 11082457 (Centre De Recherches De Croissy, 2000).

Test [1] has as its target T1, Alpha-1B adrenergic receptor (Homo sapiens, UniProt P35368).
T1 sequence (P35368 whole entry): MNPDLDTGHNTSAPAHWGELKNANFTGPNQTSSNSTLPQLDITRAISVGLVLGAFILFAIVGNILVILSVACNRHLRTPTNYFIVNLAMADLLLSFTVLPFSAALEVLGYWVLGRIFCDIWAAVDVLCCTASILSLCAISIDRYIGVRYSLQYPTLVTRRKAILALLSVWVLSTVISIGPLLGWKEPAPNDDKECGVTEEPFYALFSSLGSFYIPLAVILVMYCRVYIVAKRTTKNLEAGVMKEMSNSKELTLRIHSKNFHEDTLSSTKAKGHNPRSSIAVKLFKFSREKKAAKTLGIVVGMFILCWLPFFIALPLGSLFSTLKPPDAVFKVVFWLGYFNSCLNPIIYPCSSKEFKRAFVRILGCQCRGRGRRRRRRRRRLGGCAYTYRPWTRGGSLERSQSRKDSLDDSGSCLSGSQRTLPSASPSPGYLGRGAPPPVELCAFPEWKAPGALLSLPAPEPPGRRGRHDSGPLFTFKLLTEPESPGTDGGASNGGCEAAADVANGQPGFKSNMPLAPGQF

For another test, the target named is Nischarin (Rattus norvegicus, UniProt Q4G017).
Chain of Nischarin (Q4G017 whole entry): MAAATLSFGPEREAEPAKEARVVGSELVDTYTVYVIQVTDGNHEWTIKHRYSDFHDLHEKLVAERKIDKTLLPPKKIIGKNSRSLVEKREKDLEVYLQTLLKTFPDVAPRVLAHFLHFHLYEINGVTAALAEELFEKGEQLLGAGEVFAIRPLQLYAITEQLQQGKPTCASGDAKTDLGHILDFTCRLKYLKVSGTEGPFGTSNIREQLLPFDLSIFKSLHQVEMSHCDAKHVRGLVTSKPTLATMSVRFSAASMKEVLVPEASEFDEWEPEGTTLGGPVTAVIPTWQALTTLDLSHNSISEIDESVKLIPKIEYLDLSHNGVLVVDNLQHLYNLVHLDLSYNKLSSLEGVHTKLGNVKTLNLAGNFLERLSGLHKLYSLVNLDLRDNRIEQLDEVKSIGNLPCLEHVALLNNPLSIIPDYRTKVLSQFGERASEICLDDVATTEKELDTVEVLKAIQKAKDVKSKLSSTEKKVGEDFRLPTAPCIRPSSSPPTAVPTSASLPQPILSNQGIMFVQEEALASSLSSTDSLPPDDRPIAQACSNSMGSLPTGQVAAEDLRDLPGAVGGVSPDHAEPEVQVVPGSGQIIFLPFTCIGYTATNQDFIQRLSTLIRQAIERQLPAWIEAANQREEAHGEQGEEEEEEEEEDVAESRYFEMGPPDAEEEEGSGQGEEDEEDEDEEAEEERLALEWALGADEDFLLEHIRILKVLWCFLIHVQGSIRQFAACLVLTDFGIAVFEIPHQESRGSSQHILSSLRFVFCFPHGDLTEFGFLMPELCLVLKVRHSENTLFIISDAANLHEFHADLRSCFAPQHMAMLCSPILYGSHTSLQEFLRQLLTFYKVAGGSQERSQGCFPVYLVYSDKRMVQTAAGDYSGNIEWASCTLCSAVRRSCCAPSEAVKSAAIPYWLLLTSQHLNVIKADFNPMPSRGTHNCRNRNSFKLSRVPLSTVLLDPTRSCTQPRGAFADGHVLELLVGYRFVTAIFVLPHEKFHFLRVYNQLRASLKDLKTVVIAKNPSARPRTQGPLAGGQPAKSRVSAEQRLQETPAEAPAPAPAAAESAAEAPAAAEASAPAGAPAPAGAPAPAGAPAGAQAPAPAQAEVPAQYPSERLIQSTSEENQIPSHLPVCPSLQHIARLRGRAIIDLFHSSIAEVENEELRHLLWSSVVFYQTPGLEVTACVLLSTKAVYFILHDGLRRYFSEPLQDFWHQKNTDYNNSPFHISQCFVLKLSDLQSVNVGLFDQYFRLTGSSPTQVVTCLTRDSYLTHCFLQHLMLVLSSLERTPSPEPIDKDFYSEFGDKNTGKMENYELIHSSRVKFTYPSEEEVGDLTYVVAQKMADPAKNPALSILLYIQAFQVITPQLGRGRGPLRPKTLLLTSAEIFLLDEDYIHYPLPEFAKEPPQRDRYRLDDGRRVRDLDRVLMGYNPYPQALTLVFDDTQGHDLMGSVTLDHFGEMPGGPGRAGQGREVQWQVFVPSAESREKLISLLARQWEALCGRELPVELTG
The target in test [2] is T2, Amine oxidase [flavin-containing] A (Rattus norvegicus, UniProt P21396).
T2 sequence (P21396 whole entry): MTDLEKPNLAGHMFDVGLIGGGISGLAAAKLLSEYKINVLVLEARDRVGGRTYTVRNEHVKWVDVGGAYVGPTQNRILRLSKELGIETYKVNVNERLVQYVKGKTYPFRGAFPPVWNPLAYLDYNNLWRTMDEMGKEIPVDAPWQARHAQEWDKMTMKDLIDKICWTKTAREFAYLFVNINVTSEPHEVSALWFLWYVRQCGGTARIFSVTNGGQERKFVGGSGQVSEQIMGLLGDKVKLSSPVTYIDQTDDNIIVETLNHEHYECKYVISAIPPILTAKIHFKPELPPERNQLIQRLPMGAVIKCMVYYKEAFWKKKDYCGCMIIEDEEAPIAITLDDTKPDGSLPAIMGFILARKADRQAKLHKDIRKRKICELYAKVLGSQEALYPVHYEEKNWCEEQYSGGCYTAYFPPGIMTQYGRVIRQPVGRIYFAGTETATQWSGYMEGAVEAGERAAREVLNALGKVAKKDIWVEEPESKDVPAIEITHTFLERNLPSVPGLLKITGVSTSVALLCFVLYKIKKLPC

Test [3] has as its target T3, Alpha-1D adrenergic receptor (Homo sapiens, UniProt P25100).
T3 sequence (P25100 whole entry): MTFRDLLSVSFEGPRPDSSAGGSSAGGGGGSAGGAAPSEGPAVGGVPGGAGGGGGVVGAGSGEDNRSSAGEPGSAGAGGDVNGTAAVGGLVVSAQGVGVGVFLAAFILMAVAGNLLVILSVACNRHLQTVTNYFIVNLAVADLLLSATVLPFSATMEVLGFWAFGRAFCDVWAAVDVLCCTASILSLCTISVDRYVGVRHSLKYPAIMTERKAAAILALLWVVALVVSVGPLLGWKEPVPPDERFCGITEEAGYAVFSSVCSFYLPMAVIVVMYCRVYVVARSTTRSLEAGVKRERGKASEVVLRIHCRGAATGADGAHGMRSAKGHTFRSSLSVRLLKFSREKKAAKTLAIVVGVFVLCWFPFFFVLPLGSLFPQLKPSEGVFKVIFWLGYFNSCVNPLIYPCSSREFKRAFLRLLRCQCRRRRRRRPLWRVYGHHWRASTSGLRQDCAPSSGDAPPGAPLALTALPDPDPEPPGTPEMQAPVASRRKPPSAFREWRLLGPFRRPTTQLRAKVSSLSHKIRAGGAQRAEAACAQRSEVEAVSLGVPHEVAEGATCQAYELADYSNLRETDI

For test [4], the target named is T4, Amine oxidase [flavin-containing] B (Rattus norvegicus, UniProt P19643).
T4 sequence (P19643 whole entry): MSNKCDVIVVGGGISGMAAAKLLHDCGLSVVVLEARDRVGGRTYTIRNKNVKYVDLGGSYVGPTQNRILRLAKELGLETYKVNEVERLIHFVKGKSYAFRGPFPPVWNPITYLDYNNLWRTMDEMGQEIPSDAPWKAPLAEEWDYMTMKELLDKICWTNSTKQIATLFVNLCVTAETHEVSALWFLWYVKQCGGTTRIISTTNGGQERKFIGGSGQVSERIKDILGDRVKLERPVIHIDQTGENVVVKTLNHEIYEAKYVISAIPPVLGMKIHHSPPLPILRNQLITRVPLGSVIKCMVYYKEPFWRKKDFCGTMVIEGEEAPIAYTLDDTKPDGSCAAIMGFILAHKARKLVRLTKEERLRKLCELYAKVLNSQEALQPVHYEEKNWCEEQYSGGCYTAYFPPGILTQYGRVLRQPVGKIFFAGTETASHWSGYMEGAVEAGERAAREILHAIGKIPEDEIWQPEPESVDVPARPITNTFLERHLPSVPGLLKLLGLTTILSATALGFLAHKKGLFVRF

In test [5] the target is Sodium-dependent noradrenaline transporter (Homo sapiens, UniProt P23975).
Chain of Sodium-dependent noradrenaline transporter (P23975 whole entry): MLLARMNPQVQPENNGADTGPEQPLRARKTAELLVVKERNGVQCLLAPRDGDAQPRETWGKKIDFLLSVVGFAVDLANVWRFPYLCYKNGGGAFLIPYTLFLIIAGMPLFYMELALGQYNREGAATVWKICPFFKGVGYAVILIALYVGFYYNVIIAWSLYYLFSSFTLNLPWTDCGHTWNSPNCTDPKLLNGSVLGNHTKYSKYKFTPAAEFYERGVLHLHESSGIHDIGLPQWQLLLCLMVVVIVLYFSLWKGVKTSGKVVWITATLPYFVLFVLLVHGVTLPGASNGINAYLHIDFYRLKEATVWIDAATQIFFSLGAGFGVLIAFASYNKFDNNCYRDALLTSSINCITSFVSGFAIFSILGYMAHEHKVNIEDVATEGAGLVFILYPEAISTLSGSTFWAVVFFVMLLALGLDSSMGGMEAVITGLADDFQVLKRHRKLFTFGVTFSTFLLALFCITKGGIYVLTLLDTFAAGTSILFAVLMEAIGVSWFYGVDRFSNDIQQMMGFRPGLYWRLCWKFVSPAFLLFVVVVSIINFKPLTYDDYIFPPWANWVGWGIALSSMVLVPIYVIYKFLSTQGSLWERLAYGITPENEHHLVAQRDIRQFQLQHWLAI

Broadly, the Ki is the dissociation constant of the complex between target and ligand, obtained from inhibition or displacement.

For `Clc1cccc(Cl)c1N=C1NCCN1` [2-(2,6-dichloroanilino)-2-imidazoline], the Ki in test [1] came out at 316 nM; on Nischarin, 1000 nM; in test [2], 1000 nM; in test [3] it was 126 nM; in test [4] it was 1000 nM; in test [5], 1000 nM.
